Measured values published in patent US20160106723A1, “METHODS TO SENSE AND TREAT SUBCLINICAL SKIN DAMAGE” (priority 2014, published 2016).

Key:
[1] = tested on: subclinical skin damage in unblemished skin; assay: Topical treatment of unblemished skin of participants, observed skin reaction (photographs); assay type: in vivo, human; conditions: participant
Source text: The response of sun or UV damaged cells to Imiquimod in these non-suspicious areas are indicative of altered cells. Clearly subclinical skin damage or AK may exist in the skin but may not be clinically evident in their early development as appearing in FIGS. 1A, 2A, 3A, 4A, 5A, 6A, and 7A.
The detailed method of treatment of subclinical skin damage and of inducing an immune cell response in unblemished skin involves topical application of formulation essentially comprising Imiquimod in an effective amount during a cycle of therapy that is in the range of two to four weeks; and observing the skin for the response; wherein the composition is administered once or twice daily during the cycle of therapy, which is repeated at least once on a substantially annual basis.

[2] = tested on: normal human skin; conditions: cited from earlier work

For `CC(C)Cn1cnc2c(N)nc3ccccc3c21` [Imiquimod], the “skin reaction after treatment” value ([1]; FIG. 1B, chest region, 11 days of treatment, strength about 3.75%) was “severe erythema”, the “skin reaction after treatment” value ([1]; FIG. 2B, chest region, fourteen days of treatment, strength about 5.00%) was “moderate erythema” and the “skin reaction after treatment” value ([1]; FIG. 3B, chest region, fourteen days of treatment, strength about 3.75%) was “moderate erythema”. The “skin reaction after treatment” value ([1]; FIG. 5B, forehead region, fifteen days of treatment, strength about 3.75%) was “moderate reaction”, the “skin reaction after treatment” value ([1]; FIG. 6B, scalp region, ten days of treatment, strength about 2.5%) was “moderate reaction” and the “skin reaction after treatment” value ([1]; FIG. 7B, cheek region, fourteen days of treatment, strength about 2.5%) was “moderate reaction”. For the same compound, the “skin reaction after treatment” value ([1]; FIG. 8A, cheek region, fourteen days of treatment, strength about 2.5%) was “moderate reaction”, the “skin reaction after treatment” value ([1]; FIG. 8B and 8C, forehead region, fourteen days of treatment, strength about 2.5%) was “moderate reaction” and the “skin reaction after treatment” value ([1]; FIGS. 4B and 4C, cheek region, twelve days of treatment, strength about 2.5%) was “mild reaction”. The “effect on IL-10 production” value [2] was “reduced IL-10 production” and the “effect on resident T cells” value [2] was “induced activation of resident T cells”.
